Assay results as given in US11780893B2, “Kv1.3 blockers” (Zealand Pharma A/S, priority 2019, dated 2023).
pIC50: −log10 of the molar value. Bridge positions count the residues as written; N and C are the ends. Square brackets hold non-standard residues; d marks the D form. Peptide text beside a SMILES is read from it. Nle = CCCC[C@H](N)C(=O)O

Assays:
[1] = target: T1, human Kv1.3 voltage-gated K+ channel (Homo sapiens, UniProt P22001); test: cell-based; details: inhibition of thallium flux, CHO-DUKX cells with human Kv1.3; read-out: IC50
T1 construct: host or cells: CHO-DUKX
T1 sequence (P22001 whole entry): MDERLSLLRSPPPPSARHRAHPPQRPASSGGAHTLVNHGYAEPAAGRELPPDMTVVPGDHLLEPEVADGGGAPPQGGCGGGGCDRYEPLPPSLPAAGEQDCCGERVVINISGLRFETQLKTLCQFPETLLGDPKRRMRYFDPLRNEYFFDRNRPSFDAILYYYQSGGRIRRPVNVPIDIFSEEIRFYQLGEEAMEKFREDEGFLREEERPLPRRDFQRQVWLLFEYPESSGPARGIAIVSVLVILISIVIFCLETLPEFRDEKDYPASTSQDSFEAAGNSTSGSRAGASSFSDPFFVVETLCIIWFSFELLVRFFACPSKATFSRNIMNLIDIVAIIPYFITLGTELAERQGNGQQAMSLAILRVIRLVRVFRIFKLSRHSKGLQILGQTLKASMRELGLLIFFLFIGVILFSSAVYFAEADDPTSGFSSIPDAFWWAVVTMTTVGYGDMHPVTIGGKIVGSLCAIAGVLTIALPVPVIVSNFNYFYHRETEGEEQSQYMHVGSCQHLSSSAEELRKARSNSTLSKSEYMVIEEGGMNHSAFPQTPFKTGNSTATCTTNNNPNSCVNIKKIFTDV

Kv1.1 = target: T2, Kv1.1 (Homo sapiens, UniProt Q09470); test: cell-based; details: for IC50: CHO cells, whole-cell patch clamp, read-out: Potency IC50 (nM) Kv1.1; for Selectivity Kv1.1/Kv1.3: ratio IC50[Kv1.1]/IC50[Kv1.3]
T2 construct: expressed in transfected cells; host or cells: Chinese Hamster Ovary (CHO)
T2 sequence (Q09470 whole entry): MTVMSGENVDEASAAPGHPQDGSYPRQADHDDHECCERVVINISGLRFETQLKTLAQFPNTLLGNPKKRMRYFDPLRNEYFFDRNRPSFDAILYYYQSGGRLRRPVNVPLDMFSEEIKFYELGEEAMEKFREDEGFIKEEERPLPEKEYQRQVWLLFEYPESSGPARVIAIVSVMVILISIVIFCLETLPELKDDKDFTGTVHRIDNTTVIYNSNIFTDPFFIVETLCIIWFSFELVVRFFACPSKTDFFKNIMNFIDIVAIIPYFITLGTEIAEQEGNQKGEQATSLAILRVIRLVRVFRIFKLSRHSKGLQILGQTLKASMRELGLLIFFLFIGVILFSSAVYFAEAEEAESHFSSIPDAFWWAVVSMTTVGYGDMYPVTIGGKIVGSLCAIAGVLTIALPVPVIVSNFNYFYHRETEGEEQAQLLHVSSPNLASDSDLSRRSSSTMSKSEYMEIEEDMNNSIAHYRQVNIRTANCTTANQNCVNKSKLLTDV

Kv1.2 = target: T3, Kv1.2 (Homo sapiens, UniProt P16389); test: cell-based; details: for IC50: CHO cells, whole-cell patch clamp, read-out: Potency IC50 (nM) Kv1.2
T3 construct: expressed in transfected cells; host or cells: Chinese Hamster Ovary (CHO)
T3 sequence (P16389 whole entry): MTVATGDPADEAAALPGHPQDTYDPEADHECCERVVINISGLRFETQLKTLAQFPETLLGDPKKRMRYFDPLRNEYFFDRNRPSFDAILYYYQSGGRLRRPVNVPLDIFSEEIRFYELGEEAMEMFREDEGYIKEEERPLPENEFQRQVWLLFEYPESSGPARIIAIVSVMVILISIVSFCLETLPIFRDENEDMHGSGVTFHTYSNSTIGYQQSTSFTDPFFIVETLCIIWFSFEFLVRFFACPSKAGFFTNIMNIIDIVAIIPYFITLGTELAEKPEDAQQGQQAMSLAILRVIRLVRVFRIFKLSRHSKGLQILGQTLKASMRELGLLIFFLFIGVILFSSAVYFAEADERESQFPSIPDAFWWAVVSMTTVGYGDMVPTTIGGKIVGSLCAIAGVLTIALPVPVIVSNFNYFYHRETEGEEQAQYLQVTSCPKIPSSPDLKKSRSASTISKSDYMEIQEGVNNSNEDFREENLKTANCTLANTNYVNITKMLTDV

Kv1.3 = target: T4, Kv1.3 (Homo sapiens, UniProt P22001); test: cell-based; details: CHO cells, whole-cell patch clamp; read-out: Potency IC50 (nM) Kv1.3
T4 construct: expressed in transfected cells; host or cells: Chinese Hamster Ovary (CHO)
T4 sequence (P22001 whole entry): as the sequence (P22001 whole entry) above

Kv1.6 = target: T5, Kv1.6 (Homo sapiens, UniProt P17658); test: cell-based; details: for IC50: CHO cells, whole-cell patch clamp, read-out: Potency IC50 (nM) Kv1.6
T5 construct: expressed in transfected cells; host or cells: Chinese Hamster Ovary (CHO)
T5 sequence (P17658 whole entry): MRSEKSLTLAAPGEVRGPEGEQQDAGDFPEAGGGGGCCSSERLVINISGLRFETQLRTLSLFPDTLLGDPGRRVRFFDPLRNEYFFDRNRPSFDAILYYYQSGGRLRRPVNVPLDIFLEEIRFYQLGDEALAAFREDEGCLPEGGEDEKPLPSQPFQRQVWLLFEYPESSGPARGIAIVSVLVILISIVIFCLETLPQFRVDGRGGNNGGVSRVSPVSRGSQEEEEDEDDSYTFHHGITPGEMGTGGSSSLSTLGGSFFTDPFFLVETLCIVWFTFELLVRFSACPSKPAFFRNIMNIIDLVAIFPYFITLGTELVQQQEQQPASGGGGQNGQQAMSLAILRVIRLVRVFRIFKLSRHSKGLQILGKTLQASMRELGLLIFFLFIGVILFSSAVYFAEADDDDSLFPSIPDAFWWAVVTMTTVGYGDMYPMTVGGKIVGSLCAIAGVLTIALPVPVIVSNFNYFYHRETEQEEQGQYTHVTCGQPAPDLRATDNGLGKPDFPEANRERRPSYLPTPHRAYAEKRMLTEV

Rat whole blood = Rat whole blood (Rattus norvegicus, UniProt P15384)
Sequence of Rat whole blood (P15384 whole entry): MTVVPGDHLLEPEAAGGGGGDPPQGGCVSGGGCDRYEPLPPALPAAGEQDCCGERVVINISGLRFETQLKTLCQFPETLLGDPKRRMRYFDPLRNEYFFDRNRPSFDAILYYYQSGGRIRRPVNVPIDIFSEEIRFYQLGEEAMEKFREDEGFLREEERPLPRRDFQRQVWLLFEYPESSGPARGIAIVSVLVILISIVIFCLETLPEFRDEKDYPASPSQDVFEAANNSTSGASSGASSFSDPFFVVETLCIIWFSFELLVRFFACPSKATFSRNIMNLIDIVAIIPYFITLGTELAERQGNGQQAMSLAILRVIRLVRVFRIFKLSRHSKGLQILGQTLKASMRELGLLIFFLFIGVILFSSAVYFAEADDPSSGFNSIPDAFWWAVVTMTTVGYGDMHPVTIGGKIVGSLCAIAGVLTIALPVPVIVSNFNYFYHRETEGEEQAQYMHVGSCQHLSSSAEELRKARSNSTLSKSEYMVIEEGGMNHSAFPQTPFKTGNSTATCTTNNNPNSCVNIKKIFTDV

Compound	pIC50 [1]	IC50 (Kv1.1) [nM]	Selectivity Kv1.1/Kv1.3 (Kv1.1)	IC50 (Kv1.2) [nM]	IC50 (Kv1.3) [nM]	IC50 (Kv1.6) [nM]	pIC50 (Rat whole blood)	Selectivity Kv1.2/Kv1.3 (Kv1.2; ratio IC50[Kv1.2]/IC50[Kv1.3])	Selectivity Kv1.6/Kv1.3 (Kv1.6; ratio IC50[Kv1.6]/IC50[Kv1.3])
CC[C@H](C)[C@@H]1NC(=O)[C@H](C)NC(=O)[C@H](CCCCN)NC(=O)[C@H](CC(C)C)NC(=O)[C@@H]2CSSC[C@@H](C(=O)N[C@@H](Cc3ccc(O)cc3)C(=O)N3CCC[C@H]3C(=O)N[C@@H](CCCNC(=N)N)C(=O)O)NC(=O)[C@H](CCCCN)NC(=O)[C@@H]3CSSC[C@H](NC(=O)[C@H](CCC(=O)O)NC(=O)[C@H](C(C)C)NC(=O)[C@H](CO)NC(=O)[C@H](C)NC(=O)[C@H](CO)NC(=O)[C@@H](NC(=O)[C@H](CCCNC(=N)N)NC(=O)[C@H](CCSC)NC(=O)[C@H](CC(=O)O)NC(=O)[C@H](CCSC)NC(=O)[C@@H](N)CCC(N)=O)CSSC[C@H](NC(=O)[C@H](CCCCN)NC(=O)CNC(=O)[C@H](Cc4ccccc4)NC(=O)CNC(=O)[C@H](CCCNC(=N)N)NC(=O)CNC1=O)C(=O)N[C@@H](CCSC)C(=O)N[C@@H](CC(N)=O)C(=O)N[C@@H](CCCCN)C(=O)N[C@@H](CCCCN)C(=O)N3)C(=O)N[C@@H](CCCCN)C(=O)N[C@@H](CCC(N)=O)C(=O)N[C@@H](CCCCN)C(=O)N2 [Compound 2] (H-QMDMRCSASVECKQKCLKAIGRGFGKCMNKKCKCYPR-OH; disulfide 6-27, 12-32, 16-34)	9.60	> 3000	>2000	97	1.5	1810	–	–	–
CC[C@H](C)[C@@H]1NC(=O)[C@H](C)NC(=O)[C@H](CCCCN)NC(=O)[C@H](CC(C)C)NC(=O)[C@@H]2CSSC[C@@H](C(=O)N[C@@H](Cc3ccc(O)cc3)C(=O)N3CCC[C@H]3C(=O)N[C@@H](CCCNC(=N)N)C(N)=O)NC(=O)[C@H](CCCCN)NC(=O)[C@@H]3CSSC[C@H](NC(=O)[C@H](CCC(=O)O)NC(=O)[C@H](C(C)C)NC(=O)[C@H](CO)NC(=O)[C@H](C)NC(=O)[C@H](CO)NC(=O)[C@@H](NC(=O)[C@H](CCCNC(=N)N)NC(=O)[C@H](CCSC)NC(=O)[C@H](CC(=O)O)NC(=O)[C@H](CCSC)NC(=O)[C@@H](N)CC(N)=O)CSSC[C@H](NC(=O)[C@H](CCCCN)NC(=O)CNC(=O)[C@H](Cc4ccccc4)NC(=O)[C@H]([C@@H](C)CC)NC(=O)[C@H](CO)NC(=O)CNC1=O)C(=O)N[C@@H](CCSC)C(=O)N[C@@H](CC(N)=O)C(=O)N[C@@H](CCCCN)C(=O)N[C@@H](CCCCN)C(=O)N3)C(=O)N[C@@H](CCCCN)C(=O)N[C@@H](CC(C)C)C(=O)N[C@@H](CCCCN)C(=O)N2 [Compound 32] (H-NMDMRCSASVECKLKCLKAIGSIFGKCMNKKCKCYPR-NH2; disulfide 6-27, 12-32, 16-34)	9.92	–	–	–	0.38	–	≥ 9.00	–	–
CCCC[C@@H]1NC(=O)[C@@H]2CSSC[C@H](NC(=O)[C@H](CCCNC(=N)N)NC(=O)[C@H](CCCC)NC(=O)[C@H](CC(=O)O)NC(=O)[C@H](CCCC)NC(=O)[C@@H](N)CO)C(=O)N[C@@H](CO)C(=O)N[C@@H](C)C(=O)N[C@@H](CO)C(=O)N[C@@H](C(C)C)C(=O)N[C@@H](CCC(=O)O)C(=O)N[C@H]3CSSC[C@H](NC(=O)[C@H](CCCCN)NC(=O)[C@H](CCCCN)NC(=O)[C@H](CC(N)=O)NC1=O)C(=O)N[C@@H](CCCCN)C(=O)N[C@H](C(=O)N[C@@H](Cc1ccc(O)cc1)C(=O)N1CCC[C@H]1C(=O)N[C@@H](CCCNC(=N)N)C(N)=O)CSSC[C@H](NC(=O)[C@H](CCCCN)NC(=O)[C@H](CCC(N)=O)NC(=O)[C@H](CCCCN)NC3=O)C(=O)N[C@@H](CC(C)C)C(=O)N[C@@H](CCCCN)C(=O)N[C@@H](C)C(=O)N[C@@H]([C@@H](C)CC)C(=O)NCC(=O)N[C@@H](CO)C(=O)N[C@@H]([C@@H](C)CC)C(=O)N[C@@H](Cc1ccccc1)C(=O)NCC(=O)N[C@@H](CCCCN)C(=O)N2 [Compound 66] (H-S[Nle]D[Nle]RCSASVECKQKCLKAIGSIFGKC[Nle]NKKCKCYPR-NH2; disulfide 6-27, 12-32, 16-34)	9.92	–	–	–	0.18	–	≥ 9.00	–	–
CCCC[C@@H]1NC(=O)[C@@H]2CSSC[C@H](NC(=O)[C@H](CCCNC(=N)N)NC(=O)[C@H](CCCC)NC(=O)[C@H](CC(=O)O)NC(=O)[C@H](CCCC)NC(=O)[C@@H](N)C(C)C)C(=O)N[C@@H](CO)C(=O)N[C@@H](C)C(=O)N[C@@H](CO)C(=O)N[C@@H](C(C)C)C(=O)N[C@@H](CCC(=O)O)C(=O)N[C@H]3CSSC[C@H](NC(=O)[C@H](CCCCN)NC(=O)[C@H](CCCCN)NC(=O)[C@H](CC(N)=O)NC1=O)C(=O)N[C@@H](CCCCN)C(=O)N[C@H](C(=O)N[C@@H](Cc1ccc(O)cc1)C(=O)N1CCC[C@H]1C(=O)N[C@@H](CCCNC(=N)N)C(N)=O)CSSC[C@H](NC(=O)[C@H](CCCCN)NC(=O)[C@H](CCC(N)=O)NC(=O)[C@H](CCCCN)NC3=O)C(=O)N[C@@H](CC(C)C)C(=O)N[C@@H](CCCCN)C(=O)N[C@@H](C)C(=O)N[C@@H]([C@@H](C)CC)C(=O)NCC(=O)N[C@@H](CO)C(=O)N[C@@H]([C@@H](C)CC)C(=O)N[C@@H](Cc1ccccc1)C(=O)NCC(=O)N[C@@H](CCCCN)C(=O)N2 [Compound 67] (H-V[Nle]D[Nle]RCSASVECKQKCLKAIGSIFGKC[Nle]NKKCKCYPR-NH2; disulfide 6-27, 12-32, 16-34)	9.92	–	–	–	0.32	–	≥ 9.00	–	–
CC[C@H](C)[C@@H]1NC(=O)[C@@H](NC(=O)[C@H](CO)NC(=O)[C@@H](N)CCCNC(=N)N)CSSC[C@@H](C(=O)O)NC(=O)[C@H]([C@@H](C)O)NC(=O)CNC(=O)[C@@H]2CSSC[C@@H]3NC(=O)[C@H](CCC(N)=O)NC(=O)[C@H](Cc4ccccc4)NC(=O)[C@H](C)NC(=O)[C@H]([C@@H](C)O)NC(=O)[C@H](CSSC[C@H](NC(=O)[C@H](Cc4ccccc4)NC(=O)[C@H](CO)NC(=O)[C@H](CC(C)C)NC(=O)[C@H](CCCNC(=N)N)NC(=O)[C@H](Cc4ccc(O)cc4)NC(=O)[C@H](CCCCN)NC(=O)[C@H](CCSC)NC(=O)[C@H](CO)NC(=O)[C@H](Cc4cnc[nH]4)NC(=O)[C@H](CCCCN)NC3=O)C(=O)N[C@@H](CCCNC(=N)N)C(=O)N[C@@H](CCCCN)C(=O)N[C@@H]([C@@H](C)O)C(=O)N2)NC(=O)[C@H](CCCNC(=N)N)NC(=O)[C@H](CO)NC(=O)[C@H](CCCCN)NC(=O)[C@@H]2CCCN2C(=O)[C@H]([C@@H](C)CC)NC(=O)[C@H]([C@@H](C)O)NC(=O)[C@H](CC(=O)O)NC1=O [ShK, reference compound]	–	–	–	11	–	0.19	–	–	–
CC[C@H](C)[C@H](NC(=O)[C@H](C)NC(=O)[C@H](C)NC(=O)[C@H](C)N)C(=O)N[C@@H](CO)C(=O)N[C@H]1CSSC[C@@H]2NC(=O)[C@H](CCCCN)NC(=O)CNC(=O)[C@H](CC(N)=O)NC(=O)[C@H](CCCCN)NC(=O)[C@@H]3CSSC[C@@H](C(N)=O)NC(=O)[C@H](Cc4ccc(O)cc4)NC(=O)[C@H](Cc4ccc(O)cc4)NC(=O)[C@@H]4CSSC[C@H](NC(=O)[C@H](CCCCN)NC(=O)[C@@H]5CCCN5C(=O)[C@@H]5CCCN5C(=O)[C@H](CSSC[C@H](NC(=O)[C@H](CCCCN)NC(=O)[C@H](CCCNC(=N)N)NC(=O)[C@H](CC(N)=O)NC(=O)[C@H](CCSC)NC2=O)C(=O)N[C@@H](CCCCN)C(=O)N4)NC(=O)[C@H](CCC(=O)O)NC(=O)[C@@H]2CCCN2C(=O)[C@H](CO)NC(=O)CNC(=O)[C@H](C(C)C)NC1=O)C(=O)N[C@@H](CCCNC(=N)N)C(=O)N[C@@H](C)C(=O)N[C@@H](CCC(N)=O)C(=O)NCC(=O)N3 [Vm24, reference compound]	–	0.097	0.65	4.7	0.15	21	–	31	139
